Laboratory results: ChEMBL document CHEMBL5465560, “Selectivity Literature for EUbOPEN Chemogenomic Library” (2024)

Key:
[1] = target: T1, Interleukin-1 receptor-associated kinase 4 (Homo sapiens) (UniProt Q9NWZ3); test: Selectivity interaction (KinomeScan (DiscoverX)) EUB0000229b IRAK4; conditions: at 10 µM
T1 sequence (whole entry): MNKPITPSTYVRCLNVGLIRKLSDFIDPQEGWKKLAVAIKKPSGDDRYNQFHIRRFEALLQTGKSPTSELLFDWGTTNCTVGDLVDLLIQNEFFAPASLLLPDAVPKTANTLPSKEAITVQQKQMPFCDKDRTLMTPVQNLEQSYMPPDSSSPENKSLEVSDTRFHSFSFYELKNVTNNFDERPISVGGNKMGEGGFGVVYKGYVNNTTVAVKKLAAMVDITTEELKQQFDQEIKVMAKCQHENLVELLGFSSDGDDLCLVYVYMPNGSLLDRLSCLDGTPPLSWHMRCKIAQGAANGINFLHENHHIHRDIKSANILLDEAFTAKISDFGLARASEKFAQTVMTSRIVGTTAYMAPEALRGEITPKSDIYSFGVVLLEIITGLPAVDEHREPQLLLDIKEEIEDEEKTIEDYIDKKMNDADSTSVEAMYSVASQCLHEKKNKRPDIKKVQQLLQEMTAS

[2] = target: T2, Serine/threonine-protein kinase 17A (Homo sapiens) (UniProt Q9UEE5); test: Selectivity interaction (ProQinase) EUB0000171b STK17A
T2 sequence (whole entry): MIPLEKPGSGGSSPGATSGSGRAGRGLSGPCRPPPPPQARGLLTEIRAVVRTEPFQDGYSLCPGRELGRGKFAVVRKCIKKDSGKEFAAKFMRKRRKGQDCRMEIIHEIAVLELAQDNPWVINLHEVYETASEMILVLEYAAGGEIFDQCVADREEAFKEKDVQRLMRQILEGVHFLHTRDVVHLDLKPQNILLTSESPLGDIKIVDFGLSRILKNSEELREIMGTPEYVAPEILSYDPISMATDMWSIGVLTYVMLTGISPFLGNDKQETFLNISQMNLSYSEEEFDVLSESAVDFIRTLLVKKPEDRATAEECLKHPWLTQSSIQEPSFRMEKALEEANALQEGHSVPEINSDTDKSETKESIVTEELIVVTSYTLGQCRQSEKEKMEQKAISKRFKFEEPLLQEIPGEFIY

[3] = target: T3, Inhibitor of nuclear factor kappa-B kinase subunit epsilon (Homo sapiens) (UniProt Q14164); test: Selectivity interaction (Kinase panel (KiNativ target engagement assay in Jurkat cells)) EUB0001635a IKBKE; format: cell-based; conditions: at 1 µM
T3 sequence (whole entry): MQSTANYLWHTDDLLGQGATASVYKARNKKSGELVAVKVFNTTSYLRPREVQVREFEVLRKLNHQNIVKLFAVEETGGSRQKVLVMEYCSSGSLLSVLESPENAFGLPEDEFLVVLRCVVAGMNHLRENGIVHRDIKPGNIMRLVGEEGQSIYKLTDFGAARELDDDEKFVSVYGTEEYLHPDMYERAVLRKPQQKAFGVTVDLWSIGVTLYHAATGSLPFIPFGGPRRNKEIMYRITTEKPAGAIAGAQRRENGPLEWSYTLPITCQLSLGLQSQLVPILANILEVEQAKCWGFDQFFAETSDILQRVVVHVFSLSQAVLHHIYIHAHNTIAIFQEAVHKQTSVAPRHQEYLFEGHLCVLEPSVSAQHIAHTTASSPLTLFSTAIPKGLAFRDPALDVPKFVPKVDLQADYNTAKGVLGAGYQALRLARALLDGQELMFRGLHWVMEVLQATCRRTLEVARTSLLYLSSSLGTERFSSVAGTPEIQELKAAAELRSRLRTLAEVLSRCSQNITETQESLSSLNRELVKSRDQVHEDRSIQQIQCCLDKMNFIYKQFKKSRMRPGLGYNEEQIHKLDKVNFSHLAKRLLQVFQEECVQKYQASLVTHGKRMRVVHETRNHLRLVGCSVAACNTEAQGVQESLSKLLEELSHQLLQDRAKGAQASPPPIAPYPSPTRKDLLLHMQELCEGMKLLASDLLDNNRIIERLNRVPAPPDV

[4] = target: T4, TGF-beta receptor type-1 (Homo sapiens) (UniProt P36897); test: Selectivity interaction (Kinase panel (Invitrogen)) EUB0000639a TGFBR1; conditions: at 200 nM
T4 sequence (whole entry): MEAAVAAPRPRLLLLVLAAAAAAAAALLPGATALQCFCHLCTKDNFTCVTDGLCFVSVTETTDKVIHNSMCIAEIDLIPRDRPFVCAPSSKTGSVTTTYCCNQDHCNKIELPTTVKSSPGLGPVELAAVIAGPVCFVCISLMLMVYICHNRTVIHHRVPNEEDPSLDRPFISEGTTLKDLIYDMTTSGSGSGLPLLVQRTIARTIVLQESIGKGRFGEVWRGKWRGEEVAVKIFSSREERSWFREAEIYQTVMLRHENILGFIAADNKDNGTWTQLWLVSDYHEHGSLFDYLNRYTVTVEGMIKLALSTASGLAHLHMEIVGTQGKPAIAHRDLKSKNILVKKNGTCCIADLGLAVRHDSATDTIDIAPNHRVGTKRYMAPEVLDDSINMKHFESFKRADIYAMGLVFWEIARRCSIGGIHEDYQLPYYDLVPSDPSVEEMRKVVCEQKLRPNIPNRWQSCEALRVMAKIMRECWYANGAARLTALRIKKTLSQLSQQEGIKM

## COc1cc(N(C)c2ccnc3ccc(C(F)(F)F)cc23)cc(OC)c1OC
[1]
  % binding: 85%

## C=CC(=O)Nc1cccc(C(=O)Nc2ccc(Nc3cc(-c4[nH]c(SC)nc4C)ccn3)cc2)c1
[2]; at 1 µM
  % of control: 78%
[2]; at 5 µM
  % of control: 35%

## C=CC(=O)Nc1ccc(C(=O)Nc2[nH]nc3c2CN(C(=O)N[C@H](CN(C)C)c2ccccc2)C3(C)C)cc1
[3]; Selectivity number of off-targets 0.0, Selectivity number of targets 233.0, Source Knowledge https://www.sciencedirect.com/science/article/pii/S2451945619300674?via%3Dihub
  % of engagement: 28.4%
[3]
  % of engagement: 32.7%

## CC[C@@H]1[C@H](F)C(=O)N[C@@H]1COc1nccc2cc(C(N)=O)c(OC)cc12 [ZIMLOVISERTIB]
[4]
  % of inhibition: 27.1%
